Data as given in ChEMBL document CHEMBL1795340, “A discovery of novel Mycobacterium tuberculosis pantothenate synthetase inhibitors based on the molecular mechanism of actinomycin D inhibition” (Bioorg Med Chem Lett, 2011).
Converted amounts (≈) assume the structure as drawn. Structures can show the parent of a compound that is named as a salt. Numbered stars: 1 amine (or outer) side, 2 acyl side, 3 side chain; on linkers, the order of the positions; unused ones are H or OH. Bridge positions count the residues as written; N and C are the ends. Square brackets hold non-standard residues; d marks the D form. Peptide text beside a SMILES is read from it. I, II: the chains in the order shown. Actinocin(9to1) = Cc1c2oc3c(C)ccc(C(=O)[*:1])c3nc-2c(C(=O)[*:2])c(N)c1=O; NMeV = CN[C@H](C(=O)O)C(C)C; Sar = CNCC(=O)O

How the values were obtained:
[1] = molecular target: T1, Pantothenate synthetase (Mycobacterium tuberculosis) (UniProt P9WIL5); experiment: Inhibition of Mycobacterium tuberculosis pantothenate synthetase at 50 uM by high throughput screening method relative to control
T1 sequence (whole entry): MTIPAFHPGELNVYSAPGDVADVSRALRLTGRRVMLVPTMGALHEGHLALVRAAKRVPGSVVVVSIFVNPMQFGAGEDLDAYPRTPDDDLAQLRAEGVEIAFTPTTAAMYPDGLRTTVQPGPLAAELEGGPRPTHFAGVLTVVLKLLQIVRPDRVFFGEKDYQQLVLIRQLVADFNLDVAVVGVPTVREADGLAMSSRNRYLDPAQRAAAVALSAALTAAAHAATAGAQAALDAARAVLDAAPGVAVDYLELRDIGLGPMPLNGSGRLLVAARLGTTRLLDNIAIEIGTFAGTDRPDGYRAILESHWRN

[2] = molecular target: T2, Pantothenate synthetase (Mycobacterium tuberculosis, UniProt P9WIL5); experiment: Inhibition of Mycobacterium tuberculosis pantothenate synthetase by high throughput screening method
T2 sequence (P9WIL5 whole entry): T1 sequence (whole entry)

[3] = system: Mycobacterium tuberculosis; experiment: Antimycobacterial activity against Mycobacterium tuberculosis H37Rv; format: functional
[4] = molecular target: T2, Pantothenate synthetase; experiment: Competitive inhibition of Mycobacterium tuberculosis pantothenate synthetase using beta-alanine by Dixon plot analysis
[5] = molecular target: T2, Pantothenate synthetase; experiment: Competitive inhibition of Mycobacterium tuberculosis pantothenate synthetase using ATP by Dixon plot analysis

C=C/C=C/C=C/c1cccc(NNC(=O)CCC(=O)O)c1
inhibition [1]: 27.1%

CCN(CC)CCOC(=O)C(Cc1cccc2ccccc12)CC1CCCO1 (stereo not drawn) [NAFRONYL OXALATE]
IC50 [2]: 398 µM

COC(=O)c1cc2c(OCc3ccccc3)cc(N)cc2[nH]1
inhibition [1]: 69.4% | MIC [3]: 54 µM (≈ 16 µg/mL) | Ki [4]: 19.7 µM | Ki [5]: 1.4 µM | IC50 [2]: 22.4 µM

Cc1c2oc3c(C)ccc(C(=O)N[C@@H]4C(=O)N[C@H](C(C)C)C(=O)N5CCC[C@H]5C(=O)N(C)CC(=O)N(C)[C@@H](C(C)C)C(=O)O[C@@H]4C)c3nc-2c(C(=O)N[C@@H]2C(=O)N[C@H](C(C)C)C(=O)N3CCC[C@H]3C(=O)N(C)CC(=O)N(C)[C@@H](C(C)C)C(=O)O[C@@H]2C)c(N)c1=O [DACTINOMYCIN] (I: T[dV]P[Sar][NMeV] / II: T[dV]P[Sar][NMeV]; ester I:1-I:C, II:1-II:C; linker I:N-II:N via Actinocin(9to1))
IC50 [2]: 251 µM
